Assay results reported in patent US8158638B2, “Pyrazolopyrimidine derivative” (Daiichi Sankyo Company, Limited, priority 2006, dated 2012).
pIC50: −log10 of the molar value. Like-named read-outs stand apart in the source and are kept apart here.

Tests used:
[1] = system: human lung cancer cell line NCI-H460; assay: Cell growth inhibition assay (MTT), NCI-H460; format: cell-based; conditions: Homo sapiens, read-out: GI50 value (50% growth inhibitory concentration)
Protocol: (§1) A cell growth inhibition assay was performed using two types of cells (human breast cancer cell line SK-BR-3 and human lung cancer cell line NCI-H460).
(§2) Cells of each type were suspended in a medium and seeded into a 96-well multi-well plate at 500 cells/150 μl/well. The test compound was dissolved in DMSO, and this was diluted with medium to prepare a sample solution (DMSO concentration: 0.5% or less). On the day following the seeding, 50 μL of DMSO-containing medium to which the test compound was not added (hereinafter called DMSO diluted solution; DMSO concentration: 0.5% or less) or the sample solution was added to the cells. An MTT assay was performed immediately after and 72 hours after adding the sample solution or the DMSO diluted solution to the cells. The MTT assay was performed as follows.
(§3) 5 mg/mL of an MTT (3-(4,5-dimethylthiazol-2-yl)-2,5-diphenyltetrazolium bromide) solution was added at 20 μL per well. Thereafter, the plate was incubated at 37° C. in 5% CO2 for four hours. The plate was centrifuged at 1200 rpm for five minutes, and then the culture supernatant was removed by suction using a dispenser. DMSO was added at 150 μL per well, and the generated formazan was dissolved. The plate was stirred using a plate mixer to uniformly color the respective wells. The absorbance of each well was measured using a plate reader at an OD of 540 nm with a reference of 660 nm.
(§4) T/C (%) for each concentration was determined by the following calculation formula and a dose-response curve was drawn to calculate the 50% growth inhibitory concentration (GI50 value), based on the assumption that the OD value measured immediately after adding the sample solution was S, the OD value measured 72 hours after adding the sample solution was T, and the OD value measured 72 hours after adding the DMSO diluted solution was C. T/C(%)=(T−S)/(C−S)×100

[2] = system: human breast cancer cell line SK-BR-3; assay: Cell growth inhibition assay (MTT), SK-BR-3; format: cell-based; conditions: Homo sapiens, read-out: GI50 value (50% growth inhibitory concentration)
Protocol: as §1, §2, §3, §4

[3] = target: T1, recombinant yeast Hsp90 protein (rHsp90) (Saccharomyces cerevisiae, UniProt P02829); assay: Hsp90 ATPase assay; format: biochemical; conditions: rHsp90 100 μg/mL, ATP 100 μM, 37° C., two hours, BIOMOL GREEN; read-out: IC50 value (concentration for 50% inhibition of ATP activity)
T1 construct: made in house; host or cells: Escherichia coli
Protocol: An Hsp90 ATPase assay was performed using a recombinant yeast Hsp90 protein (hereinafter called rHsp90). Yeast Hsp90 DNA was cloned from a yeast genomic DNA library according to a conventional method. The cloned yeast Hsp90 DNA was incorporated into a plasmid for expression in Escherichia coli, and the plasmid was expressed in Escherichia coli to obtain rHsp90.
The test compound was dissolved in DMSO to 10 mM. The dissolved solution was diluted with DMSO to eight concentrations ranging in three-fold dilutions from 4 mM. Each diluted solution was further 10-fold diluted with an assay buffer (100 mM Tris, pH 7.4, 20 mM KCl, 6 mM MgCl2) (concentration of each test compound solution: 400 μM, 133 μM, 44.4 μM, 14.8 μM, 4.94 μM, 1.65 μM, 0.549 μM, 0.183 μM; DMSO concentration: 10%).
rHsp90 was dissolved in a TE buffer (20 mM Tris, pH 7.4, 1 mM EDTA) to a concentration of 2.531 mg/mL. The dissolved solution was diluted with assay buffer to 125 μg/mL and dispensed to a 96-well assay plate at 40 μL per well (final concentration: 100 μg/mL).
The test compound solution was dispensed at 5 μL per well, and then the solutions in the respective wells were mixed using a plate mixer. 100 mM ATP (Sigma, Catalog No. A-7699) was diluted with assay buffer to 1 mM and dispensed at 5 μL per well (final concentration: 100 μM). The solutions in the respective wells were mixed using a plate mixer, and then the assay plate was allowed to stand in an incubator set at 37° C. for two hours.
BIOMOL GREEN Reagent (BIOMOL, Catalog No. AK-111) was dispensed at 100 μL per well, and the reaction was terminated. The solutions in the respective wells were mixed by pipetting (three times), and then 34% sodium citrate was dispensed at 10 μL per well. The solutions in the respective wells were mixed by pipetting (three times), and then the assay plate was left to stand at room temperature for 10 minutes. The absorbance at 630 nm of each well was measured with a microplate reader.
The ratio of the absorbance of the test compound-added group to the absorbance of the test compound-free group (T/C value) was determined by the following calculation formula, based on the assumption that the absorbance of the well to which the test compound and rHsp90 were added was A, the absorbance of the well to which only rHsp90 was added was B, and the absorbance of the well to which neither the test compound nor rHsp90 was added was C. T/C=(A−C)/(B−C)
Further, the concentration for 50% inhibition of ATP activity (IC50 value) was calculated using GraphPad Prism 4 (GraphPad Software, Inc.).

T1 sequence (P02829 whole entry): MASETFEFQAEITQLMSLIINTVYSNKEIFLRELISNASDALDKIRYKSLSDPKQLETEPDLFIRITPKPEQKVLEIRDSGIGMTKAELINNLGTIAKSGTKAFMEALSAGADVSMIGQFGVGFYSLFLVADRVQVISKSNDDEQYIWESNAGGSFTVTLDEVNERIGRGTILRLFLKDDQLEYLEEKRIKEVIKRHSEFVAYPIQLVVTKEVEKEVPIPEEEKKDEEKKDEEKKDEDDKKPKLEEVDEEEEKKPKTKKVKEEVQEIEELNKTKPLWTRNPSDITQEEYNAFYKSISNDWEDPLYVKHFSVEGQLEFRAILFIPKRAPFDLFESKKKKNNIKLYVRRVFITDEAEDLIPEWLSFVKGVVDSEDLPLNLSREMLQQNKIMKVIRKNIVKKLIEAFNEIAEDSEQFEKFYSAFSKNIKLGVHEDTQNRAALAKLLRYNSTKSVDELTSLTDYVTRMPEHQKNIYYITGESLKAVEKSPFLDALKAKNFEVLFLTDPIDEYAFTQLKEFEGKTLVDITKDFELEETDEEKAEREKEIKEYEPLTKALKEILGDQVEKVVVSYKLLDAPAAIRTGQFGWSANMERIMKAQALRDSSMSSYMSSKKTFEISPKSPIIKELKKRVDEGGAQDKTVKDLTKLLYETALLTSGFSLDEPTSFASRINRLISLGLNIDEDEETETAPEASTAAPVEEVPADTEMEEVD

SMILES | GI50 ([1]; NCI-H460, MTT assay, 72 hours) | GI50 ([2]; SK-BR-3, MTT assay, 72 hours) | pIC50 [3] | GI50 ([1]; NCI-H460, 72 h) | GI50 ([2]; SK-BR-3, 72 h)
Nc1nc2c3c(nn(Cc4ccc5c(c4)OCO5)c3n1)CCS2 [Example 167, 2-(1,3-Benzodioxol-5-ylmethyl)-7,8-dihydro-2H-6-thia-1,2,3,5-tetraazaacenaphthylen-4-amine] | 7300 nM | 3300 nM | 5.27 | – | –
COc1c(C)cnc(Cn2nc3c4c(nc(N)nc42)SCC(N2CCC[C@H]2C(N)=O)C3)c1C (stereo partly drawn) [Example 67, 1-{4-Amino-2-[(4-methoxy-3,5-dimethylpyridin-2-yl)methyl]-2,7,8,9-tetrahydro-6-thia-1,2,3,5-tetraazabenzo[cd]azulen-8-yl}-L-prolinamide] | 300 nM | 130 nM | 5.92 | – | –
COc1ccnc(Cn2nc3c4c(nc(N)nc42)SCC3)c1C [Example 164, 2-[(4-Methoxy-3-methylpyridin-2-yl)methyl]-7,8-dihydro-2H-6-thia-1,2,3,5-tetraazaacenaphthylen-4-amine] | 760 nM | 410 nM | 6.01 | – | –
CCNC(=O)CC1=Cc2nn(Cc3ncc(C)c(OC)c3C)c3nc(N)nc(c23)SC1 [Example 118, 2-{4-Amino-2-[(4-methoxy-3,5-dimethylpyridin-2-yl)methyl]-2,7-dihydro-6-thia-1,2,3,5-tetraazabenzo[cd]azulen-8-yl}-N-ethylacetamide] | – | – | 6.21 | 510 nM | 33 nM
Nc1nc2c3c(nn(Cc4cc5c(cn4)OCCO5)c3n1)CCS2 [Example 172, 2-(2,3-Dihydro[1,4]dioxino[2,3-c]pyridin-7-ylmethyl)-7,8-dihydro-2H-6-thia-1,2,3,5-tetraazaacenaphthylen-4-amine] | – | – | 5.82 | – | –
COc1c(C)cnc(Cn2nc3c4c(nc(N)nc42)SC(C(=O)Nc2ncc(C)s2)C3)c1C (centres unmarked) [Example 194, 4-Amino-2-[(4-methoxy-3,5-dimethylpyridin-2-yl)methyl]-N-(5-methyl-1,3-thiazol-2-yl)-7,8-dihydro-2H-6-thia-1,2,3,5-tetraazaacenaphthylene-7-carboxamide] | 37 nM | 17 nM | 5.74 | – | –
Nc1nc2c3c(nn(Cc4nc5cccc(Cl)c5s4)c3n1)CCS2 [Example 174, 2-[(7-Chloro-1,3-benzothiazol-2-yl)methyl]-7,8-dihydro-2H-6-thia-1,2,3,5-tetraazaacenaphthylen-4-amine] | – | – | 5.47 | – | –

Further lines, with some results ahead:

GI50 ([1]; NCI-H460, MTT assay, 72 hours) | GI50 ([2]; SK-BR-3, MTT assay, 72 hours) | pIC50 [3] | SMILES | GI50 ([1]; NCI-H460, 72 h) | GI50 ([2]; SK-BR-3, 72 h)
71 nM | 38 nM | 6.20 | COc1c(C)cnc(Cn2nc3c4c(nc(N)nc42)SCC(CC(=O)N2CCC2)=C3)c1C [Example 123, 8-(2-Azetidin-1-yl-2-oxoethyl)-2-[(4-methoxy-3,5-dimethylpyridin-2-yl)methyl]-2,7-dihydro-6-thia-1,2,3,5-tetraazabenzo[cd]azulen-4-amine] | – | –
– | – | 6.12 | COc1c(C)cnc(Cn2nc3c4c(nc(N)nc42)SCC(CO)=C3)c1C [Example 214, {4-Amino-2-[(4-methoxy-3,5-dimethylpyridin-2-yl)methyl]-2,7-dihydro-6-thia-1,2,3,5-tetraazabenzo[cd]azulen-8-yl}methanol] | – | –
86 nM | 52 nM | 6.01 | COc1c(C)cnc(Cn2nc3c4c(nc(N)nc42)SCC=C3)c1C [Example 36, 2-[(4-Methoxy-3,5-dimethylpyridin-2-yl)methyl]-2,7-dihydro-6-thia-1,2,3,5-tetraazabenzo[cd]azulen-4-amine] | – | –
– | – | 5.92 | Cc1cnc(Cn2nc3c4c(nc(N)nc42)SCC3)c(C)c1Cl [Example 175, 2-[(4-Chloro-3,5-dimethylpyridin-2-yl)methyl]-7,8-dihydro-2H-6-thia-1,2,3,5-tetraazaacenaphthylen-4-amine] | – | –
– | – | 6.05 | CCc1c(C)cnc(Cn2nc3c4c(nc(N)nc42)SCC3)c1C [Example 176, 2-[(4-Ethyl-3,5-dimethylpyridin-2-yl)methyl]-7,8-dihydro-2H-6-thia-1,2,3,5-tetraazaacenaphthylen-4-amine] | – | –
